Test results as given in patent US20240229116A9, “METHOD FOR DETECTING MICRORNA IN BIOLOGICAL SAMPLE, COMPOSITION OF HYDROCHLORIDE OF NEUTRAL AMINO ACID, AND CONTAINER” (Toray Industries, Inc., priority 2021, published 2024).
Counter-ions that a name gives are not always drawn.

Columns and labels:
[1] = test system: microRNAs in serum; test: Detection of microRNAs from serum preserved after mixing with acid (3D-Gene DNA microarray, total fluorescence intensity); parameters: species or system human
Protocol: The serum which had been mixed with the acid in the step (A) was left to stand and preserved at 23° C. for 48 hours.
A quantity of 27 μL of a 4 M aqueous solution of tris(hydroxymethyl)aminomethane (manufactured by Nacalai Tesque Inc.) was mixed with the serum preserved in the step (B). […]
From the serum which had been mixed with the base in the step (C), microRNAs were collected using an RNA extraction reagent included in a 3D-Gene (registered trademark) RNA extraction reagent from liquid sample kit (manufactured by Toray Industries, Inc.), in accordance with the protocol defined by the company.
The microRNAs collected from the serum in the step (D) were fluorescently labeled, using a 3D-Gene (registered trademark) miRNA Labeling kit (manufactured by Toray Industries, Inc.), and in accordance with the protocol defined by the company. Using a 3D-Gene (registered trademark) Human miRNA Oligo chip (manufactured by Toray Industries, Inc.) containing probes having sequences complementary to 2,565 types of microRNAs, as a DNA microarray chip, hybridization was carried out in accordance with the protocol defined by the company. The DNA microarray chip was scanned using a 3D-Gene (registered trademark) scanner (manufactured by Toray Industries, Inc.), to obtain an image. The fluorescence intensities were digitized using a 3D-Gene (registered trademark) Extraction (manufactured by Toray Industries, Inc.), and the total value of the fluorescence intensities of the microRNAs which had been detected exceeding the detection limit was calculated, and the calculated value was defined as the detection level of the microRNAs.

[2] = pH adjustment of serum (dissolved state in serum and pH of serum); assay type: physicochemical, human; details: 1 mL serum added to 0.1 g composition (65 mg solid of glycine hydrochloride), 23° C. one minute
Protocol: From the upper layer of the serum in the tube, 0.1 mL of the serum was collected, and the measurement of the pH was performed using a handy pH meter (manufactured by HORIBA, Ltd.).

[3] = Example 13: serum of healthy subject Y, pH 3.1 after acid, 23° C. 48 hours, Tris base to pH 7.8
[4] = Example 14: subject Y serum, pH 3.1 after acid, 23° C. 48 hours, Tris base to pH 6.0
[5] = Example 15: subject Y serum, pH 3.1 after acid, 23° C. 48 hours, Tris base to pH 7.0
[6] = Example 16: subject Y serum, pH 3.1 after acid, 23° C. 48 hours, no base mixed (pH 3.1)
[7] = Comparative Example 3: subject X serum, no acid (pH 7.5), 23° C. 48 hours, Tris base to pH 7.7

O=C(O)CC(O)(CC(=O)O)C(=O)O [Citric acid, citric acid]
Fluorescence intensities relative to before preservation [1, 3]: 104.5%
Total value of fluorescence intensities [1, 3]: 1.10 × 10^6
Fluorescence intensities relative to before preservation ([1]; Example 13: serum of healthy subject Y, pH 3.1 after acid, 23° C. 48 hours, Tris base to pH 7.8, listed as citric acid): ≥ 100%
Fluorescence intensities relative to before preservation [1, 4]: 85.0%
Total value of fluorescence intensities [1, 4]: 8.95 × 10^5
Fluorescence intensities relative to before preservation ([1]; Example 14: subject Y serum, pH 3.1 after acid, 23° C. 48 hours, Tris base to pH 6.0, listed as citric acid): ≥ 70%
Fluorescence intensities relative to before preservation [1, 5]: 85.5%
Total value of fluorescence intensities [1, 5]: 9.00 × 10^5
Fluorescence intensities relative to before preservation ([1]; Example 15: subject Y serum, pH 3.1 after acid, 23° C. 48 hours, Tris base to pH 7.0, listed as citric acid): ≥ 70%
Fluorescence intensities relative to before preservation [1, 6]: 75.2%
Total value of fluorescence intensities [1, 6]: 7.92 × 10^5
Fluorescence intensities relative to before preservation ([1]; Example 16: subject Y serum, pH 3.1 after acid, 23° C. 48 hours, no base mixed (pH 3.1), listed as citric acid): ≥ 70%

NCC(=O)O [Glycine hydrochloride, glycine hydrochloride]
Total value of fluorescence intensities ([1]; Example 1: serum of healthy subject X, pH 2.8 after mixing acid, preserved 23° C. 48 hours, Tris base to pH 7.5): 9.81 × 10^5
Total value of fluorescence intensities ([1]; Example 2: subject X serum, pH 2.8 after acid, 23° C. 48 hours, Tris base to pH 7.7): 9.51 × 10^5
Total value of fluorescence intensities ([1]; Example 3: subject X serum, pH 2.8 after acid, 23° C. 48 hours, Tris base to pH 8.0): 1.10 × 10^6
Total value of fluorescence intensities ([1]; Example 4: subject X serum, pH 2.8 after acid, 23° C. 48 hours, Tris base to pH 8.5): 8.99 × 10^5
Total value of fluorescence intensities ([1]; Example 5: subject X serum, pH 2.8 after acid, 23° C. 48 hours, Tris base to pH 9.0): 7.89 × 10^5
Total value of fluorescence intensities ([1]; Example 6: subject X serum, pH 2.8 after acid, 23° C. 48 hours, Tris base to pH 6.0): 7.19 × 10^5
Total value of fluorescence intensities ([1]; Example 7: subject X serum, pH 2.8 after acid, 23° C. 48 hours, Tris base to pH 7.0): 7.23 × 10^5
Total value of fluorescence intensities ([1]; Example 8: subject X serum, pH 2.8 after acid, 23° C. 48 hours, no base mixed (pH 2.8)): 6.25 × 10^5
Total value of fluorescence intensities ([1]; Example 9: subject X serum, pH 4.0 after acid, 23° C. 48 hours, Tris base to pH 7.7): 1.05 × 10^6
Total value of fluorescence intensities ([1]; Example 10: subject X serum, pH 2.8 after acid, 23° C. 2 hours, Tris base to pH 7.7): 8.70 × 10^5
Total value of fluorescence intensities ([1]; Example 11: subject X serum, pH 2.8 after acid, 23° C. 6 hours, Tris base to pH 7.7): 9.07 × 10^5
Total value of fluorescence intensities ([1]; Example 12: subject X serum, pH 2.8 after acid, 23° C. 96 hours, Tris base to pH 7.7): 1.00 × 10^6
pH of serum ([2]; upper layer, pH 7.7 before the addition): 4.5
dissolved state in serum ([2]; visual observation): did not quickly dissolve in the serum

tris(hydroxymethyl)aminomethane
Fluorescence intensities relative to before preservation [1, 7]: 16.3%
Total value of fluorescence intensities [1, 7]: 1.39 × 10^5
